Reference: article PMC8459971, “Evaluation of the hepatotoxicity of the novel GPR40 (FFAR1) agonist CPL207280 in the rat and monkey” (PLoS ONE, 2021)

Test system: HepaRG spheroids
Test: HepaRG 3D spheroids, cell and mitochondrial health markers, 14 days
Details: for High Cell Loss (Cellular ATP) / High Cell Loss (DNA structure) / High Cell Loss (Glutathione content) / High Cell Loss (Mitochondrial mass) / High Cell Loss (Mitochondrial membrane potential) / High Cell Loss (Oxidative stress) / High Cell Loss (Spheroid count) / High Cell Loss (Spheroid size): HepaRG spheroid, timepoint 336; for Cellular ATP Mean Plotted Value / DNA structure Mean Plotted Value / Glutathione content Mean Plotted Value / Mitochondrial mass Mean Plotted Value / Mitochondrial membrane potential Mean Plotted Value / Oxidative stress Mean Plotted Value / Spheroid count Mean Plotted Value / Spheroid size Mean Plotted Value: TIMEPOINT 336
Procedure: Hepatic spheroids were formed by seeding HepaRG™ cells into round-bottom ultra-low adhesion 96-well spheroid plates (Corning®) in 3D liver media with 0.5% DMSO, 100 U/mL penicillin, and 100 mg/L streptomycin. Cells were incubated at 37°C and 5% CO2 until spheroid formation and then compound-treated. The test compound was diluted in the vehicle, and serial dilutions were made in a 0.5% vehicle in HepaRG™ induction media. […] L-buthionine sulfoximine was used as positive control for GSH content, whereas rotenone was simultaneously used as a positive control for mitochondrial dysfunction and ATP content. At the end of the incubation period, the cells were loaded with the relevant dye for each cell health marker: DNA structure–Hoescht, GSH content–mBCL, ROS formation–DHE, mitochondrial dysfunction–MitoTracker, and cellular ATP content–CellTiter-Glo®, Promega. The plate was then scanned using an automated confocal fluorescent cellular imager, ArrayScan® XTI (Thermo Scientific Cellomics) at 37°C and 5% CO2. Further, the cellular ATP content was measured using CellTiter-Glo® (Promega, USA).

CCCCS(=N)(=O)CC[C@H](N)C(=O)O (stereo partly drawn) [L-buthionine-sulfoximine]
High Cell Loss (Cellular ATP) (CONC 0.4 uM): N | High Cell Loss (DNA structure) (CONC 0.4 uM): N | High Cell Loss (Glutathione content) (CONC 0.4 uM): N | High Cell Loss (Mitochondrial mass) (CONC 0.4 uM): N | High Cell Loss (Mitochondrial membrane potential) (CONC 0.4 uM): N | High Cell Loss (Oxidative stress) (CONC 0.4 uM): N | High Cell Loss (Spheroid count) (CONC 0.4 uM): N | High Cell Loss (Spheroid size) (CONC 0.4 uM): N | Cellular ATP Mean Plotted Value (CONC 0.4 uM): 1.06 | DNA structure Mean Plotted Value (CONC 0.4 uM): 1 | Glutathione content Mean Plotted Value (CONC 0.4 uM): 0.883 | Mitochondrial mass Mean Plotted Value (CONC 0.4 uM): 1.03 | Mitochondrial membrane potential Mean Plotted Value (CONC 0.4 uM): 0.945 | Oxidative stress Mean Plotted Value (CONC 0.4 uM): 1.02 | Spheroid count Mean Plotted Value (CONC 0.4 uM): 1 | Spheroid size Mean Plotted Value (CONC 0.4 uM): 0.995 | High Cell Loss (Cellular ATP) (CONC 1 uM): N | High Cell Loss (DNA structure) (CONC 1 uM): N | High Cell Loss (Glutathione content) (CONC 1 uM): N | High Cell Loss (Mitochondrial mass) (CONC 1 uM): N | High Cell Loss (Mitochondrial membrane potential) (CONC 1 uM): N | High Cell Loss (Oxidative stress) (CONC 1 uM): N | High Cell Loss (Spheroid count) (CONC 1 uM): N | High Cell Loss (Spheroid size) (CONC 1 uM): N | Cellular ATP Mean Plotted Value (CONC 1 uM): 1.05 | DNA structure Mean Plotted Value (CONC 1 uM): 1.1 | Glutathione content Mean Plotted Value (CONC 1 uM): 0.886 | Mitochondrial mass Mean Plotted Value (CONC 1 uM): 1.14 | Mitochondrial membrane potential Mean Plotted Value (CONC 1 uM): 1 | Oxidative stress Mean Plotted Value (CONC 1 uM): 0.984 | Spheroid count Mean Plotted Value (CONC 1 uM): 1 | Spheroid size Mean Plotted Value (CONC 1 uM): 1.06 | High Cell Loss (Cellular ATP) (CONC 4 uM): N | High Cell Loss (DNA structure) (CONC 4 uM): N | High Cell Loss (Glutathione content) (CONC 4 uM): N | High Cell Loss (Mitochondrial mass) (CONC 4 uM): N | High Cell Loss (Mitochondrial membrane potential) (CONC 4 uM): N | High Cell Loss (Oxidative stress) (CONC 4 uM): N | High Cell Loss (Spheroid count) (CONC 4 uM): N | High Cell Loss (Spheroid size) (CONC 4 uM): N | Cellular ATP Mean Plotted Value (CONC 4 uM): 0.856 | DNA structure Mean Plotted Value (CONC 4 uM): 0.816 | Glutathione content Mean Plotted Value (CONC 4 uM): 0.715 | Mitochondrial mass Mean Plotted Value (CONC 4 uM): 1.03 | Mitochondrial membrane potential Mean Plotted Value (CONC 4 uM): 0.861 | Oxidative stress Mean Plotted Value (CONC 4 uM): 1 | Spheroid count Mean Plotted Value (CONC 4 uM): 1 | Spheroid size Mean Plotted Value (CONC 4 uM): 0.997 | High Cell Loss (Cellular ATP) (CONC 10 uM): N | High Cell Loss (DNA structure) (CONC 10 uM): N | High Cell Loss (Glutathione content) (CONC 10 uM): N | High Cell Loss (Mitochondrial mass) (CONC 10 uM): N | High Cell Loss (Mitochondrial membrane potential) (CONC 10 uM): N | High Cell Loss (Oxidative stress) (CONC 10 uM): N | High Cell Loss (Spheroid count) (CONC 10 uM): N | High Cell Loss (Spheroid size) (CONC 10 uM): N | Cellular ATP Mean Plotted Value (CONC 10 uM): 0.697 | DNA structure Mean Plotted Value (CONC 10 uM): 1.13 | Glutathione content Mean Plotted Value (CONC 10 uM): 0.689 | Mitochondrial mass Mean Plotted Value (CONC 10 uM): 0.979 | Mitochondrial membrane potential Mean Plotted Value (CONC 10 uM): 0.943 | Oxidative stress Mean Plotted Value (CONC 10 uM): 1.04 | Spheroid count Mean Plotted Value (CONC 10 uM): 1 | Spheroid size Mean Plotted Value (CONC 10 uM): 0.951 | High Cell Loss (Cellular ATP) (CONC 40 uM): N | High Cell Loss (DNA structure) (CONC 40 uM): N | High Cell Loss (Glutathione content) (CONC 40 uM): N | High Cell Loss (Mitochondrial mass) (CONC 40 uM): N | High Cell Loss (Mitochondrial membrane potential) (CONC 40 uM): N | High Cell Loss (Oxidative stress) (CONC 40 uM): N | High Cell Loss (Spheroid count) (CONC 40 uM): N | High Cell Loss (Spheroid size) (CONC 40 uM): N | Cellular ATP Mean Plotted Value (CONC 40 uM): 0.216 | DNA structure Mean Plotted Value (CONC 40 uM): 1.18 | Glutathione content Mean Plotted Value (CONC 40 uM): 0.15
